Experimental data taken from patent publication US10080741B2, “Isoxazole derivatives as FXR agonists and methods of use thereof” (Enanta Pharmaceuticals, Inc., priority 2016, dated 2018).

Biological target: T1, human FXR (NR1H4) (Homo sapiens, UniProt Q96RI1)
T1 construct: host or cells: CHO (Chinese hamster ovary) reporter cells
T1 sequence (Q96RI1 1-486): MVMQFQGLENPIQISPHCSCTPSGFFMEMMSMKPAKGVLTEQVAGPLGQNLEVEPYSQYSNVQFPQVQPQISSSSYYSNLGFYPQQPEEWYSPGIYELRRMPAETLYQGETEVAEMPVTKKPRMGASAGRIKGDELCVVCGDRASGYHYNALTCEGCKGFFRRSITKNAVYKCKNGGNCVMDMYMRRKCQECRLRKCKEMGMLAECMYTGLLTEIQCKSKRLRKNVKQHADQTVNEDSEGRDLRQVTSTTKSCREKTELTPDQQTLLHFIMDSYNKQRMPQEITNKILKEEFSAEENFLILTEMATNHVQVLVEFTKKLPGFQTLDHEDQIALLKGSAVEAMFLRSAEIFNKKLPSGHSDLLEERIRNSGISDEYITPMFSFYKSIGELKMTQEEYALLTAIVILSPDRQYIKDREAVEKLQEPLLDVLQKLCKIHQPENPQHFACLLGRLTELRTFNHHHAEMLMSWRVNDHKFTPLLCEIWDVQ
Experiment: Human FXR (NR1H4) Assay, luciferase reporter in CHO cells (Indigo Bioscience kit IB00601)
Type: cell-based
Conditions: for EC50: CHO cells expressing human NR1H4, 22 hours incubation, potency ranges; for Efficacy (%): efficacy normalized to CDCA set as 100%
Text: Human FXR (NR1H4) Assay Determination of a ligand mediated Gal4 promoter driven transactivation to quantify ligand binding mediated activation of FXR. FXR Reporter Assay kit purchased from Indigo Bioscience (Catalogue number: IB00601) to determine the potency and efficacy of compound developed by Enanta that can induce FXR activation. The principle application of this reporter assay system is to quantify functional activity of human FXR. The assay utilizes non-human mammalian cells, CHO (Chinese hamster ovary) cells engineered to express human NR1H4 protein (referred to as FXR). Reporter cells also incorporate the cDNA encoding beetle luciferase which catalyzes the substrates and yields photon emission. Luminescence intensity of the reaction is quantified using a plate-reading luminometer, Envision. Reporter Cells include the luciferase reporter gene functionally linked to an FXR responsive promoter. Thus, quantifying changes in luciferase expression in the treated reporter cells provides a sensitive surrogate measure of the changes in FXR activity. […] The assay is according to the manufacturer's instructions. […] Retrieve Reporter Cells from −80° C. storage. Perform a rapid thaw of the frozen cells by transferring a 10 ml volume of 37° C. cell recovery medium into the tube of frozen cells. Recap the tube of Reporter Cells and immediately place it in a 37° C. water bath for 5-10 minutes. Retrieve the tube of Reporter Cell Suspension from the water bath. Sanitize the outside surface of the tube with a 70% alcohol swab, and then transfer it into the cell culture hood. Dispense 90 μl of cell suspension into each well of the 96-well Assay Plate. Transfer the plate into 37° C. incubator, allowing the cells adherent to the bottom of the well. Dilute compounds in Dilution Plate (DP), and administrate to cells at Assay Plate (AP). DMSO content of the samples was kept at 0.2%. Cells were incubated for additional 22 hours before luciferase activities were measured. Thirty minutes before intending to quantify FXR activity, remove Detection Substrate and Detection Buffer from the refrigerator and place them in a low-light area so that they may equilibrate to room temperature. Remove the plate's lid and discard all media contents by ejecting it into an appropriate waste container. Gently tap the inverted plate onto a clean absorbent paper towel to remove residual droplets. Cells will remain tightly adhered to well bottoms. Add 100 μl of luciferase detection reagent to each well of the assay plate. Allow the assay plate to rest at room temperature for at least 5 minutes following the addition of LDR. Set the instrument (Envision) to perform a single 5 second “plate shake” prior to reading the first assay well. Read time may be 0.5 second (500 mSec) per well.

Row | EC50 | Efficacy (%) | SMILES
1 | 100 to 1000 nM | 116% | CC(C)c1onc(-c2c(Cl)cccc2Cl)c1COc1ccc2cc(-c3cccc(C(=O)NS(=O)(=O)N(C)C)c3)sc2c1 [Example 318]
2 | 1000 to 10000 nM | 132% | CC(C)c1onc(-c2c(Cl)cccc2Cl)c1COc1ccc2cc(-c3cccc(C(=O)NS(=O)(=O)c4ccc(C(C)(C)C)cc4)c3)sc2c1 [Example 312]
3 | 100 to 1000 nM | 220% | CC(C)c1onc(-c2c(Cl)cccc2Cl)c1COc1ccc2cc(-c3cccc(C(=O)O)c3)sc2c1 [Compound (1), reference compound]
4 | 100 to 1000 nM | 190% | CC(C)c1onc(-c2c(Cl)cccc2Cl)c1COc1ccc2cc(-c3cccc(C(=O)NS(=O)(=O)C4CC4)c3)sc2c1 [Example 303]
